Measurements from ChEMBL document CHEMBL3885861, “Open TG-GATES”.
Structures can show the parent of a compound that is named as a salt.

Organism: Rattus norvegicus
Test: Open TG-GATES - Regimen: Single
Assay type: toxicity, organism-based, Sprague-Dawley
Parameters: regimen Single, gender Male, age 6 weeks
Conditions: in vivo, ip, 80 mg/kg, route intraperitoneal injection, dose level Low; for APTT / Bas / Eos / Fbg / Hb / Ht / Lym / MCH / MCHC / MCV / Mono / Neu / PT / Plat / RBC / Ret / WBC: tissue Blood; for KIDNEY_L / KIDNEY_R / KIDNEY_TOTAL: tissue Kidney; for LIVER: tissue Liver; for A/G / ALP / ALT / AST / BUN / CRE / Ca / Cl / DBIL / GLC / IP / K / LDH / Na / PL / RALB / TBIL / TC / TG / TP / gamma-GTP: tissue Plasma

CCOC(=O)/C=C\C(=O)OCC [DIETHYL MALEATE]
TERMINAL_BW (3 h): 197.8 g | APTT (3 h): 16.6 s | Bas (3 h): 0% | Eos (3 h): 0.4% | Fbg (3 h): 212.4 mg/dL | Hb (3 h): 13.4 g/dL | Ht (3 h): 40% | Lym (3 h): 73.4% | MCH (3 h): 22 pg | MCHC (3 h): 33.5% | MCV (3 h): 65.8 fL | Mono (3 h): 6.6% | Neu (3 h): 20% | PT (3 h): 12.3 s | Plat (3 h): 114.6 x10_4/uL | RBC (3 h): 608.6 x10_4/ul | Ret (3 h): 9.4% | WBC (3 h): 97 x10_2/uL | KIDNEY_L (3 h): 0.8 g | KIDNEY_R (3 h): 0.9 g | KIDNEY_TOTAL (3 h): 1.7 g | LIVER (3 h): 9 g | A/G (3 h): 1.9 | ALP (3 h): 802.4 IU/L | ALT (3 h): 41.2 IU/L | AST (3 h): 75.2 IU/L | BUN (3 h): 14.8 mg/dL | CRE (3 h): 0.5 mg/dL | Ca (3 h): 11 mg/dL | Cl (3 h): 106.6 meq/L | DBIL (3 h): 0.032 mg/dL | GLC (3 h): 194.2 mg/dL | IP (3 h): 10.2 mg/dL | K (3 h): 5.1 meq/L | LDH (3 h): 80.8 IU/L | Na (3 h): 140.4 meq/L | PL (3 h): 150.4 mg/dL | RALB (3 h): 3.6 g/dL | TBIL (3 h): 0.4 mg/dL | TC (3 h): 88 mg/dL | TG (3 h): 33 mg/dL | TP (3 h): 5.5 g/dL | gamma-GTP (3 h): 1 IU/L | TERMINAL_BW (6 h): 197.1 g | APTT (6 h): 16.8 s | Bas (6 h): 0% | Eos (6 h): 0.6% | Fbg (6 h): 207.2 mg/dL | Hb (6 h): 13.1 g/dL | Ht (6 h): 39.2% | Lym (6 h): 76.2% | MCH (6 h): 21.9 pg | MCHC (6 h): 33.4% | MCV (6 h): 65.4 fL | Mono (6 h): 5.2% | Neu (6 h): 17.8% | PT (6 h): 12.2 s | Plat (6 h): 116.6 x10_4/uL | RBC (6 h): 599.8 x10_4/ul | Ret (6 h): 9.5% | WBC (6 h): 108.8 x10_2/uL | KIDNEY_L (6 h): 0.9 g | KIDNEY_R (6 h): 0.9 g | KIDNEY_TOTAL (6 h): 1.7 g | LIVER (6 h): 8.4 g | A/G (6 h): 1.9 | ALP (6 h): 753.2 IU/L | ALT (6 h): 36.4 IU/L | AST (6 h): 76.2 IU/L | BUN (6 h): 13 mg/dL | CRE (6 h): 0.5 mg/dL | Ca (6 h): 10.7 mg/dL | Cl (6 h): 106.8 meq/L | DBIL (6 h): 0.002 mg/dL | GLC (6 h): 194 mg/dL | IP (6 h): 10 mg/dL | K (6 h): 4.8 meq/L | LDH (6 h): 91 IU/L | Na (6 h): 139.2 meq/L | PL (6 h): 131.4 mg/dL | RALB (6 h): 3.4 g/dL | TBIL (6 h): 0.5 mg/dL | TC (6 h): 73.4 mg/dL | TG (6 h): 46 mg/dL | TP (6 h): 5.3 g/dL | gamma-GTP (6 h): 1 IU/L | TERMINAL_BW (9 h): 197.4 g | APTT (9 h): 16.7 s | Bas (9 h): 0% | Eos (9 h): 0.8% | Fbg (9 h): 223.2 mg/dL | Hb (9 h): 12.9 g/dL | Ht (9 h): 38.5% | Lym (9 h): 71.4% | MCH (9 h): 21.7 pg | MCHC (9 h): 33.6% | MCV (9 h): 64.7 fL | Mono (9 h): 3.8% | Neu (9 h): 24% | PT (9 h): 11.7 s | Plat (9 h): 117.4 x10_4/uL | RBC (9 h): 596.2 x10_4/ul | Ret (9 h): 9.2% | WBC (9 h): 102 x10_2/uL | KIDNEY_L (9 h): 0.8 g | KIDNEY_R (9 h): 0.9 g | KIDNEY_TOTAL (9 h): 1.7 g | LIVER (9 h): 8 g | A/G (9 h): 2.2 | ALP (9 h): 735 IU/L | ALT (9 h): 35.2 IU/L | AST (9 h): 73.4 IU/L | BUN (9 h): 12.6 mg/dL | CRE (9 h): 0.4 mg/dL | Ca (9 h): 10.5 mg/dL | Cl (9 h): 107.2 meq/L | DBIL (9 h): 0.026 mg/dL | GLC (9 h): 204.6 mg/dL | IP (9 h): 9.6 mg/dL | K (9 h): 4.7 meq/L | LDH (9 h): 89.4 IU/L | Na (9 h): 139.6 meq/L | PL (9 h): 137.8 mg/dL | RALB (9 h): 3.6 g/dL | TBIL (9 h): 0.3 mg/dL | TC (9 h): 79.4 mg/dL | TG (9 h): 41 mg/dL | TP (9 h): 5.3 g/dL | gamma-GTP (9 h): 1.4 IU/L | TERMINAL_BW (24 h): 209.5 g | APTT (24 h): 15.5 s | Bas (24 h): 0% | Eos (24 h): 0.8% | Fbg (24 h): 225.8 mg/dL | Hb (24 h): 12.9 g/dL | Ht (24 h): 38.7% | Lym (24 h): 79.4% | MCH (24 h): 21.6 pg | MCHC (24 h): 33.4% | MCV (24 h): 64.7 fL | Mono (24 h): 4.6% | Neu (24 h): 15.2% | PT (24 h): 11.8 s | Plat (24 h): 123.2 x10_4/uL | RBC (24 h): 598.4 x10_4/ul | Ret (24 h): 9.8% | WBC (24 h): 94.6 x10_2/uL | KIDNEY_L (24 h): 0.9 g | KIDNEY_R (24 h): 0.9 g | KIDNEY_TOTAL (24 h): 1.8 g | LIVER (24 h): 10 g | A/G (24 h): 2.1 | ALP (24 h): 887.2 IU/L | ALT (24 h): 36 IU/L | AST (24 h): 63.6 IU/L | BUN (24 h): 17.4 mg/dL | CRE (24 h): 0.5 mg/dL | Ca (24 h): 11.1 mg/dL | Cl (24 h): 106 meq/L | DBIL (24 h): 0.03 mg/dL | GLC (24 h): 195.8 mg/dL | IP (24 h): 8 mg/dL | K (24 h): 5 meq/L | LDH (24 h): 94.4 IU/L | Na (24 h): 139.6 meq/L | PL (24 h): 148.8 mg/dL | RALB (24 h): 3.7 g/dL | TBIL (24 h): 0.3 mg/dL | TC (24 h): 82.6 mg/dL | TG (24 h): 93 mg/dL | TP (24 h): 5.5 g/dL | gamma-GTP (24 h): 1.6 IU/L
